Assay results as given in ChEMBL document CHEMBL4177608, “Design and synthesis of benzimidazole-based Rho kinase inhibitors for the treatment of glaucoma” (Bioorg Med Chem, 2017).
In brackets after ≈: the same amount, converted by molar mass.

Columns and labels:
[1] = Antioxidant activity assessed as DPPH free radical scavenging activity at 25 ug/ml after 30 mins by spectrophotometric analysis; format: functional
[2] = 1-Octanol/water partition coefficient, log P of compound at 2 mg after 24 hrs by spectrophotometry based shake flask method; format: physicochemical
[3] = Antioxidant activity assessed as DPPH free radical scavenging activity at 50 ug/ml after 30 mins by spectrophotometric analysis; format: functional
[4] = species: Rattus norvegicus; assay: Reduction in intraocular pressure in Wistar rat model of dexamethasone-induced elevated IOP assessed as change in intraocular pressure in contralateral eye at 1 % w/v after 2 hrs by tonometry (reference value: 0%); format: ADME, organism-based; design: scale not given: the % may be the effect or the level left; details: in vivo
[5] = Antioxidant activity assessed as DPPH free radical scavenging activity after 30 mins by spectrophotometric analysis; format: functional
[6] = species: Rattus norvegicus; assay: Reduction in intraocular pressure in Wistar rat model of dexamethasone-induced elevated IOP assessed as onset time for reduction in intraocular pressure at 1 % w/v by tonometry; format: functional
[7] = species: Rattus norvegicus; assay: Reduction in intraocular pressure in Wistar rat model of dexamethasone-induced elevated IOP assessed as change in intraocular pressure in contralateral eye at 1 % w/v after 2.5 hrs by tonometry (reference value: 0%); format: ADME, organism-based; design: scale not given: the % may be the effect or the level left; details: in vivo
[8] = species: Rattus norvegicus; assay: Reduction in intraocular pressure in Wistar rat model of dexamethasone-induced elevated IOP assessed as change in intraocular pressure at 1 % w/v after 6 hrs by tonometry (reference value: 0%); format: functional; design: scale not given: the % may be the effect or the level left
[9] = Antioxidant activity assessed as DPPH free radical scavenging activity at 150 ug/ml after 30 mins by spectrophotometric analysis; format: functional
[10] = Antioxidant activity assessed as DPPH free radical scavenging activity at 5 ug/ml after 30 mins by spectrophotometric analysis; format: functional
[11] = species: Rattus norvegicus; assay: Reduction in intraocular pressure in Wistar rat model of dexamethasone-induced elevated IOP assessed as change in intraocular pressure at 1 % w/v after 4 hrs by tonometry (reference value: 0%); format: functional; design: scale not given: the % may be the effect or the level left
[12] = species: Rattus norvegicus; assay: Reduction in intraocular pressure in Wistar rat model of dexamethasone-induced elevated IOP assessed as change in intraocular pressure in contralateral eye at 1 % w/v after 3 hrs by tonometry (reference value: 0%); format: ADME, organism-based; design: scale not given: the % may be the effect or the level left; details: in vivo
[13] = species: Rattus norvegicus; assay: Reduction in intraocular pressure in Wistar rat model of dexamethasone-induced elevated IOP assessed as change in intraocular pressure at 1 % w/v after 5 hrs by tonometry (reference value: 0%); format: functional; design: scale not given: the % may be the effect or the level left
[14] = species: Rattus norvegicus; assay: Reduction in intraocular pressure in Wistar rat model of dexamethasone-induced elevated IOP assessed as change in intraocular pressure at 1 % w/v after 3 hrs by tonometry (reference value: 0%); format: functional; design: scale not given: the % may be the effect or the level left
[15] = species: Rattus norvegicus; assay: Reduction in intraocular pressure in Wistar rat model of dexamethasone-induced elevated IOP assessed as change in intraocular pressure in contralateral eye at 1 % w/v after 4 hrs by tonometry (reference value: 0%); format: ADME, organism-based; design: scale not given: the % may be the effect or the level left; details: in vivo
[16] = species: Rattus norvegicus; assay: Reduction in intraocular pressure in Wistar rat model of dexamethasone-induced elevated IOP assessed as change in intraocular pressure in contralateral eye at 1 % w/v after 1 hr by tonometry (reference value: 0%); format: ADME, organism-based; design: scale not given: the % may be the effect or the level left; details: in vivo, topical_or_ocular
[17] = species: Rattus norvegicus; assay: Reduction in intraocular pressure in Wistar rat model of dexamethasone-induced elevated IOP assessed as reduction in intraocular pressure at peak effect time at 1 % w/v by tonometry; format: functional; design: scale not given: the % may be the effect or the level left
[18] = species: Rattus norvegicus; assay: Reduction in intraocular pressure in Wistar rat model of dexamethasone-induced elevated IOP assessed as change in intraocular pressure in contralateral eye at 1 % w/v after 1.5 hrs by tonometry (reference value: 0%); format: ADME, organism-based; design: scale not given: the % may be the effect or the level left; details: in vivo
[19] = species: Rattus norvegicus; assay: Reduction in intraocular pressure in Wistar rat model of dexamethasone-induced elevated IOP assessed as change in intraocular pressure at 1 % w/v after 2 hrs by tonometry (reference value: 0%); format: functional; design: scale not given: the % may be the effect or the level left
[20] = species: Rattus norvegicus; assay: Reduction in intraocular pressure in Wistar rat model of dexamethasone-induced elevated IOP assessed as change in intraocular pressure at 1 % w/v after 2.5 hrs by tonometry (reference value: 0%); format: functional; design: scale not given: the % may be the effect or the level left
[21] = Antioxidant activity assessed as DPPH free radical scavenging activity at 200 ug/ml after 30 mins by spectrophotometric analysis; format: functional
[22] = species: Rattus norvegicus; assay: Reduction in intraocular pressure in Wistar rat model of dexamethasone-induced elevated IOP assessed as change in intraocular pressure in contralateral eye at 1 % w/v after 6 hrs by tonometry (reference value: 0%); format: ADME, organism-based; design: scale not given: the % may be the effect or the level left; details: in vivo
[23] = species: Rattus norvegicus; assay: Reduction in intraocular pressure in Wistar rat model of dexamethasone-induced elevated IOP assessed as change in intraocular pressure at 1 % w/v after 1.5 hrs by tonometry (reference value: 0%); format: functional; design: scale not given: the % may be the effect or the level left
[24] = species: Rattus norvegicus; assay: Reduction in intraocular pressure in Wistar rat model of dexamethasone-induced elevated IOP assessed as change in intraocular pressure at 1 % w/v after 0.5 hrs by tonometry (reference value: 0%); format: functional; design: scale not given: the % may be the effect or the level left
[25] = species: Rattus norvegicus; assay: Reduction in intraocular pressure in Wistar rat model of dexamethasone-induced elevated IOP assessed as peak effect time for reduction in intraocular pressure at 1 % w/v by tonometry; format: functional, organism-based
[26] = species: Rattus norvegicus; assay: Reduction in intraocular pressure in Wistar rat model of dexamethasone-induced elevated IOP assessed as change in intraocular pressure in contralateral eye at 1 % w/v after 5 hrs by tonometry (reference value: 0%); format: ADME, organism-based; design: scale not given: the % may be the effect or the level left; details: in vivo
[27] = species: Rattus norvegicus; assay: Reduction in intraocular pressure in Wistar rat model of dexamethasone-induced elevated IOP assessed as change in intraocular pressure in contralateral eye at 1 % w/v after 0.5 hrs by tonometry (reference value: 0%); format: ADME, organism-based; design: scale not given: the % may be the effect or the level left; details: in vivo, topical_or_ocular
[28] = Antioxidant activity assessed as DPPH free radical scavenging activity at 100 ug/ml after 30 mins by spectrophotometric analysis; format: functional
[29] = species: Rattus norvegicus; assay: Reduction in intraocular pressure in Wistar rat model of dexamethasone-induced elevated IOP assessed as change in intraocular pressure at 1 % w/v after 1 hr by tonometry (reference value: 0%); format: functional; design: scale not given: the % may be the effect or the level left

Structure (SMILES)	Activity [1]	logP at 24 h [2]	Activity [3]	Activity [4]	IC50 [5]	Time [6]	Activity [7]	Activity [8]	Activity [9]	Activity [10]	Activity [11]	Activity [12]	Activity [13]	Activity [14]	Activity [15]	Activity [16]	Activity [17]	Activity [18]	Activity [19]	Activity [20]	further results
CN1CCN(CC(=O)Nc2nc3ccccc3[nH]2)CC1	19.9%	1.67	33.5%	5.75%	137.54 µg/mL (≈ 503 µM)	0.5 h	6.57%	0.3%	54.3%	11%	4.45%	2.15%	1.35%	10.3%	0.55%	2.08%	44.68%	4%	12.97%	13.57%	Activity [21]: 61.6%; Activity [22]: 0%; Activity [23]: 11.95%; Activity [24]: 5.47%; Tmax [25]: 2.5 h; Activity [26]: 0%; Activity [27]: 1.08%; Activity [28]: 45%; Activity [29]: 9.77%
O=C(CN1CCN(C(c2ccccc2)c2ccccc2)CC1)Nc1nc2ccccc2[nH]1	32.9%	1.89	41.5%	5.08%	88.68 µg/mL (≈ 208 µM)	0.5 h	4%	1.7%	66.6%	22.1%	7.33%	3%	3.67%	8.17%	1.53%	1.13%	51.91%	3.43%	16.47%	12.4%	Activity [21]: 81.4%; Activity [22]: 0%; Activity [23]: 10.38%; Activity [24]: 4.37%; Tmax [25]: 2.5 h; Activity [26]: 0%; Activity [27]: 0.77%; Activity [28]: 53.7%; Activity [29]: 5.83%
O=C(CN1CCN(C(=O)c2ccco2)CC1)Nc1nc2ccccc2[nH]1	23.4%	2.02	35.9%	3.1%	116.48 µg/mL (≈ 330 µM)	0.5 h	4.15%	1.27%	59%	14.5%	6.6%	2.3%	4.47%	8.63%	0.8%	1.6%	48.33%	2.03%	11.1%	14.92%	Activity [21]: 71%; Activity [22]: 0%; Activity [23]: 8.8%; Activity [24]: 3.9%; Tmax [25]: 2 h; Activity [26]: 0%; Activity [27]: 0.4%; Activity [28]: 49%; Activity [29]: 4.6%
O=C(CN1CCN(c2ccccc2F)CC1)Nc1nc2ccccc2[nH]1	18.8%	0.94	37.4%	4.07%	121.33 µg/mL (≈ 343 µM)	0.5 h	1.27%	0.17%	56.6%	11.6%	7.52%	0.87%	0.95%	11.7%	0%	2.02%	46.61%	3.2%	12.47%	13.5%	Activity [21]: 70.6%; Activity [22]: 0%; Activity [23]: 9.77%; Activity [24]: 2.82%; Tmax [25]: 2.5 h; Activity [26]: 0%; Activity [27]: 0.9%; Activity [28]: 47.7%; Activity [29]: 6.5%
Cl.O=S(=O)(c1cccc2cnccc12)N1CCCNCC1 [FASUDIL HYDROCHLORIDE]		1.73		5.57%		0.5 h	4.62%	0.65%			7.8%	1.85%	3.42%	9%	0.3%	1.95%	54.84%	3.3%	16.67%	9.71%	Activity [22]: 0%; Activity [23]: 10.17%; Activity [24]: 4.62%; Tmax [25]: 2 h; Activity [26]: 0%; Activity [27]: 0.97%; Activity [29]: 5.4%
O=C1O[C@H]([C@@H](O)CO)C(O)=C1O [ASCORBIC ACID]	54.9%		62.5%		15.74 µg/mL (≈ 89.4 µM)				92.9%	39.5%											Activity [21]: 97.9%; Activity [28]: 79.4%
